Data reported in patent US8088951B2, “Epigenetic mechanisms re-establish access to long-term memory after neuronal loss” (Massachusetts Institute of Technology, priority 2006, dated 2012).
“Also recorded” adds a separate entry of the source.

Test system: MAP-2, synaptophysin (SVP), synaptic and dendritic marker proteins
Experiment: Synaptic and dendritic markers in hippocampus of wild type mice (immunostaining, immunoblot)
Type: in vivo
Settings: wild type mice injected for 4 weeks
Method: Immunoblotting and staining: Lysates for immunoblotting were prepared as described by Fischer et al. (3). To isolate histones, brain tissue was homogenized in TX-buffer (50 mM Tris HCL, 150 mM NACL, 2 mM EDTA, 1% Triton-100) and incubated at 4° C. for 15 min prior to centrifugation at 200 rpm for 10 min. After a wash-step in TX-buffer the pellet was dissolved in TX-buffer containing 0.2M HCl and incubated on ice for 30 min, before a second centrifugation at 10000 rpm for 10 min. The supernatant was either dialysed or directly used for immunoblotting. Antibodies were used in 1:1000 concentrations. All antibodies detecting histones and anti-PSD-95 were form Upstate (Lake Placid, N.Y.). Anti-synaptophysin (SVP38) was from Sigma. Anti-neuronal nuclei (neuN) and anti-growth associated protein (Gap43) were from Chemicon (Temecula, Calif.) and anti-N-cadherin, anti-β-catenin were from Santa Cruz (Santa Cruz, Calif.). Immunostaining was performed as described by Fischer et al. (3). Antibodies mentioned above were used in a 1:500 dilution. Anti-MAP-2 antibody (Sigma) was used in a 1:200 dilution.
LSMeta10 software (Zeiss; Jena, Germany) was used to calculate the mean SVP intensity. Brain sections with the strongest intensity were scanned first. All other images included in the analysis where scanned using the same microscope setting. […] Scale bar: 20 μm. py, pyramidal cell layer (FIG. 1g).
The effect of sodiumbutyrate injection on learning, basal anxiety, explorative behavior and brain plasticity. C57BL/6J mice were subjected to fear conditioning and injected intraperitoneally [ip] with 1.2 g/kg sodiumbutyrate (SB, n=8) or saline (vehicle; n=8) immediately afterwards. […] C57BL/6J mice were implanted with microcannulae into the lateral brain ventricles (icv) and injected with either 100 ng SB, 50 ng TSA or vehicle immediately after fear conditioning (n=8/group). […] Immunoblots were quantified relative to the optical density of the vehicle-group (set to 1). […]

CCCC(=O)[O-].[Na+] [SB, sodiumbutyrate]
levels of synaptic and dendritic marker proteins (markers for brain plasticity), hippocampal lysates (immunoblots relative to vehicle): elevated levels; also recorded: Several markers for brain plasticity were increased
hippocampal MAP-2 immunoreactivity (IR) (vs vehicle): increased MAP-2 immunoreactivity (IR)
hippocampal synaptophysin (SVP) IR (vs vehicle): increased SVP IR
